The structures appear in SMILES notation. Active and inactive are the calls of the source. The calls are words filed in the database; no cut-off is given here. Where only a bound is given, the exact number is not on record here.

For data set [1], the system named is B-cell. Kind of data set: Immunosuppressive activity in B cells (unknown origin) assessed as inhibition of LPS-induced cell proliferation at 3 to 30 ng/mL. Format: functional, cell-based.
Data set [2] concerns T-cell. Kind of data set: Immunosuppressive activity in T cells (unknown origin) assessed as inhibition of Con A-induced cell proliferation at 3 to 30 ng/mL. It counts as functional, cell-based.
The test system of data set [3] is Mus musculus. The data set is described as follows: Toxicity in male ICR-SPF mouse assessed as induction of body weight changes at 100 mg/kg, iv administered as single dose measured 14 days post dose. It counts as organism-based. Also noted: dose 100 mg/kg, route intravenous. As to conditions: in vivo, 336 h.
The subject of data set [4] is Mus musculus. The data set is described as follows: Toxicity in female ICR-SPF mouse assessed as induction of body weight changes at 100 mg/kg, iv administered as single dose measured 14 days post dose. It counts as organism-based. More on the design: dose 100 mg/kg, route intravenous. Conditions: in vivo, 336 h.
Data set [5] concerns Mus musculus. Kind of data set: Toxicity in male ICR-SPF mouse assessed as autopsy changes at 10 mg/kg, iv administered as single dose measured 14 days post dose. It counts as organism-based. More on the design: dose 10 mg/kg, route intravenous. Conditions: in vivo, 336 h.
Data set [6] relates to Mus musculus. The data set is described as follows: Toxicity in female ICR-SPF mouse assessed as autopsy changes at 10 mg/kg, iv administered as single dose measured 14 days post dose. Format: organism-based. Conditions: in vivo, 336 h. Also noted: dose 10 mg/kg, route intravenous.
The subject of data set [7] is Mus musculus. The data set is described as follows: Toxicity in male ICR-SPF mouse assessed as autopsy changes at 30 mg/kg, iv administered as single dose measured 14 days post dose. Format: organism-based. More on the design: dose 30 mg/kg, route intravenous. Conditions: in vivo, 336 h.
Data set [8] relates to Mus musculus. Kind of data set: Toxicity in female ICR-SPF mouse assessed as autopsy changes at 30 mg/kg, iv administered as single dose measured 14 days post dose. Conditions: in vivo, 336 h. Also noted: dose 30 mg/kg, route intravenous. Format: organism-based.
In data set [9] the test system is Mus musculus. The data set is described as follows: Toxicity in male ICR-SPF mouse assessed as autopsy changes at 100 mg/kg, iv administered as single dose measured 14 days post dose. Format: organism-based. Also noted: dose 100 mg/kg, route intravenous. Conditions: in vivo, 336 h.
Data set [10] deals with Mus musculus. The data set is described as follows: Toxicity in female ICR-SPF mouse assessed as autopsy changes at 100 mg/kg, iv administered as single dose measured 14 days post dose. More on the design: dose 100 mg/kg, route intravenous. As to conditions: in vivo, 336 h. It counts as organism-based.
Data set [11] deals with Mus musculus. Kind of data set: Toxicity in iv dosed male ICR-SPF mouse administered as single dose measured 14 days post dose. Conditions: in vivo, 336 h. It counts as organism-based.
Data set [12] has as its system Mus musculus. Kind of data set: Toxicity in iv dosed female ICR-SPF mouse administered as single dose measured 14 days post dose. It counts as organism-based. Conditions: in vivo, 336 h.
Data set [13] has as its system B-cell. Kind of data set: Immunosuppressive activity in B cells (unknown origin) assessed as inhibition of LPS-induced cell proliferation at 1 to 100 ng/mL. It counts as functional, cell-based.
Data set [14] deals with T-cell. Kind of data set: Immunosuppressive activity in T cells (unknown origin) assessed as inhibition of Con A-induced cell proliferation at 1 to 100 ng/mL. It counts as functional, cell-based.
The subject of another data set is RAW264.7. Kind of data set: Inhibition of nitric oxide production in mouse RAW264.7 cells at 1 to 100 ng/mL. Format: functional, cell-based.
The subject of another data set is Macrophage. Kind of data set: Inhibition of nitric oxide production in bone marrow-derived macrophages (unknown origin) at 1 to 100 ng/mL. It counts as functional, cell-based.
In another data set the test system is Dendritic cell. The data set is described as follows: Inhibition of LPS-induced IL-12 production in bone marrow-derived dendritic cells (unknown origin) at 1 to 100 ng/mL. It counts as functional, cell-based.
The nature of data set [15]: Toxicity in LPS-induced bone marrow-derived dendritic cells (unknown origin) assessed as effect on cell viability at 1 to 100 ng/mL. Format: cell-based.
For data set [16], the species on record is Mus musculus. Kind of data set: Immunosuppressive activity in SRBC immunized mouse assessed as suppression of B-cell mediated immune response. It counts as functional, organism-based.
The test system of data set [17] is Mus musculus. Kind of data set: Immunosuppressive activity in zymosan A-induced arthritis C57BL/6 mouse model assessed as reduction in pLN weight increase dosed after zymosan A challenge. Format: functional, organism-based.
Data set [18] has as its system Mus musculus. The data set is described as follows: Immunosuppressive activity in carrageenan-induced paw edema C57BL/6 mouse model assessed as reduction in pLN weight increase dosed after carrageenan challenge. Format: functional, organism-based. (In general: In the carrageenan paw model, swelling and tenderness develop within hours.)
The subject of data set [19] is Mus musculus. Kind of data set: Toxicity in C57BL/6 mouse assessed as induction of body weight loss at 1 mg/kg, iv dosed once daily for 4 days. It counts as organism-based. More on the design: dose 1 mg/kg, route intravenous. As to conditions: in vivo, 96 h.
In data set [20] the test system is Mus musculus. The data set is described as follows: Toxicity in C57BL/6 mouse assessed as induction of body weight loss at 0.1 to 3 mg/kg, iv dosed once daily for 4 days. It counts as organism-based. More on the design: dose 0.1-3 mg/kg, route intravenous. Conditions: in vivo, 96 h.
Data set [21] concerns Mus musculus. Kind of data set: Toxicity in C57BL/6 mouse assessed as induction of spleen weight loss at 0.1 to 3 mg/kg, iv dosed once daily for 4 days. Format: organism-based. More on the design: dose 0.1-3 mg/kg, route intravenous. As to conditions: in vivo, 96 h.
Data set [22] deals with Mus musculus. Kind of data set: Intestinal toxicity in C57BL/6 mouse assessed as induction of intestinal dilation at 1 mg/kg, iv dosed once daily for 4 days. Format: organism-based. Also noted: dose 1 mg/kg, route intravenous. Conditions: in vivo, 96 h.
In data set [23] the test system is Mus musculus. Kind of data set: Toxicity in male ICR-SPF mouse assessed as mortality incidences at 10 mg/kg, iv administered as single dose measured 14 days post dose. More on the design: dose 10 mg/kg, route intravenous. Format: organism-based. Conditions: in vivo, 336 h.
Data set [24] has as its system Mus musculus. Kind of data set: Toxicity in female ICR-SPF mouse assessed as mortality incidences at 10 mg/kg, iv administered as single dose measured 14 days post dose. Conditions: in vivo, 336 h. Format: organism-based. More on the design: dose 10 mg/kg, route intravenous.
Data set [25] deals with Mus musculus. Kind of data set: Toxicity in male ICR-SPF mouse assessed as mortality incidences at 30 mg/kg, iv administered as single dose measured 14 days post dose. It counts as organism-based. Conditions: in vivo, 336 h. More on the design: dose 30 mg/kg, route intravenous.
Data set [26] relates to Mus musculus. Kind of data set: Toxicity in female ICR-SPF mouse assessed as mortality incidences at 30 mg/kg, iv administered as single dose measured 14 days post dose. It counts as organism-based. More on the design: dose 30 mg/kg, route intravenous. As to conditions: in vivo, 336 h.
In data set [27] the test system is Mus musculus. Kind of data set: Toxicity in male ICR-SPF mouse assessed as mortality incidences at 100 mg/kg, iv administered as single dose measured 14 days post dose. Also noted: dose 100 mg/kg, route intravenous. Conditions: in vivo, 336 h. It counts as organism-based.
The subject of data set [28] is Mus musculus. Kind of data set: Toxicity in female ICR-SPF mouse assessed as mortality incidences at 100 mg/kg, iv administered as single dose measured 14 days post dose. Conditions: in vivo, 336 h. Also noted: dose 100 mg/kg, route intravenous. Format: organism-based.
The test system of data set [29] is Mus musculus. The data set is described as follows: Toxicity in male ICR-SPF mouse assessed as induction of body weight changes at 10 mg/kg, iv administered as single dose measured 14 days post dose. Also noted: dose 10 mg/kg, route intravenous. Conditions: in vivo, 336 h. Format: organism-based.
The test system of data set [30] is Mus musculus. Kind of data set: Toxicity in female ICR-SPF mouse assessed as induction of body weight changes at 10 mg/kg, iv administered as single dose measured 14 days post dose. Format: organism-based. Also noted: dose 10 mg/kg, route intravenous. Conditions: in vivo, 336 h.
For data set [31], the system named is Mus musculus. The data set is described as follows: Toxicity in male ICR-SPF mouse assessed as induction of body weight changes at 30 mg/kg, iv administered as single dose measured 14 days post dose. Conditions: in vivo, 336 h. Also noted: dose 30 mg/kg, route intravenous. Format: organism-based.
The subject of data set [32] is Mus musculus. The data set is described as follows: Toxicity in female ICR-SPF mouse assessed as induction of body weight changes at 30 mg/kg, iv administered as single dose measured 14 days post dose. It counts as organism-based. More on the design: dose 30 mg/kg, route intravenous. As to conditions: in vivo, 336 h.

As for `COc1ccc(-c2ccc(SC)c(=O)cc2)c(OC)c1OC`, the inhibition result with B-cell [1] and in the data set on T-cell [2] was “Active” throughout.

Take `COc1cc2c(c(OC)c1OC)-c1ccc(SC)c(=O)cc1C=CC2`: the Activity result in the data set with Mus musculus [3], in the data set on Mus musculus [4], in the data set with Mus musculus [5], in the data set on Mus musculus [6], with Mus musculus [7] and in the data set with Mus musculus [8] was “Non-toxic” throughout. Further, the Activity result was “Non-toxic” in the data set on Mus musculus [9]; “Non-toxic” with Mus musculus [10]; “Non-toxic” in data set [15]; “Dose-dependent effect” in the data set filed under Mus musculus [16]; “Non-toxic” in the data set on Mus musculus [19]; “Non-toxic” in the data set on Mus musculus [20]. For the same compound, the Activity result in the data set with Mus musculus [21], with Mus musculus [22], in the data set with Mus musculus [23], with Mus musculus [24], in the data set on Mus musculus [25] and with Mus musculus [26] was “Non-toxic” in each case. Further, the Activity entry in the data set on Mus musculus [27], with Mus musculus [28], in the data set on Mus musculus [29], in the data set with Mus musculus [30], in the data set on Mus musculus [31] and in the data set on Mus musculus [32] was “Non-toxic” in each case. Moreover, the MLD in the data set with Mus musculus [11] and with Mus musculus [12] was over 100 mg/kg throughout. Moreover, the inhibition result in the data set on B-cell [13], in the data set with T-cell [14], with Dendritic cell, with Mus musculus [17] and with Mus musculus [18] was “Dose-dependent effect” throughout. In addition, in the data set with RAW264.7, the inhibition entry is “Active”. The inhibition entry in the data set with Macrophage was “inactive”.

For `COc1cc(C/C=C/c2ccc(OC)c(=O)cc2)cc(OC)c1OC`, the inhibition entry in the data set on B-cell [1] and in the data set on T-cell [2] was “inactive” throughout.

Turning to `COc1cc2c(c(OC)c1OC)-c1ccc(SC)c(=O)cc1CCC2`, the Activity result in the data set with Mus musculus [3], in the data set on Mus musculus [4], with Mus musculus [5], in the data set on Mus musculus [6], in the data set with Mus musculus [7] and with Mus musculus [8] was “Non-toxic” in each case. Further, the Activity result with Mus musculus [9] was “Non-toxic”; in the data set on Mus musculus [10], “Non-toxic”; in [15], “Non-toxic”; in the data set filed under Mus musculus [16], “Dose-dependent effect”; in the data set with Mus musculus [19], “Non-toxic”; with Mus musculus [20], “Non-toxic”. The Activity result in the data set on Mus musculus [21], with Mus musculus [22], in the data set on Mus musculus [23], with Mus musculus [24], with Mus musculus [25] and with Mus musculus [26] was “Non-toxic” in each case. Moreover, the Activity result in the data set on Mus musculus [27], in the data set with Mus musculus [28], in the data set with Mus musculus [29], in the data set with Mus musculus [30], in the data set with Mus musculus [31] and with Mus musculus [32] was “Non-toxic” in each case. Further, the MLD in the data set with Mus musculus [11] and with Mus musculus [12] was over 100 mg/kg in each case. The inhibition entry in the data set with B-cell [13], with T-cell [14], in the data set with Dendritic cell, in the data set on Mus musculus [17] and in the data set on Mus musculus [18] was “Dose-dependent effect” throughout. The inhibition entry in the data set on RAW264.7 is “Active”. Further, in the data set with Macrophage, the inhibition entry is “inactive”.

For the compound `COc1ccc(-c2ccc(OC)c(=O)cc2)c(OC)c1OC`, the inhibition entry with B-cell [1] and in the data set with T-cell [2] was “Active” in each case.

In the case of `COc1ccc(C/C=C/c2ccc(OC)c(=O)cc2)c(OC)c1OC`, the inhibition result with B-cell [1] and with T-cell [2] was “inactive” each time.

Take `COc1cc2c(c(OC)c1OC)-c1ccc(SC)c(=O)cc1[C@@H](NC(=O)C1CC1C)CC2` (stereo partly specified): the Activity entry in the data set on Mus musculus [20], with Mus musculus [21] and with Mus musculus [22] was “Toxic” throughout.

Consider `COc1cc(/C=C/c2ccc(OC)c(=O)cc2)cc(OC)c1OC`, for which the inhibition result with B-cell [1] and in the data set on T-cell [2] was “inactive” throughout.

Consider `COc1ccc(/C=C/c2ccc(OC)c(=O)cc2)c(OC)c1OC`, for which the inhibition entry in the data set with B-cell [1] and in the data set with T-cell [2] was “inactive” each time.

For the origin of these results see ChEMBL document CHEMBL3351522, “Discovery of structurally simplified analogs of colchicine as an immunosuppressant” (Bioorg Med Chem Lett, 2014).
